Test results published in patent US8858952B2, “Methods and materials for generating T cells” (Mayo Foundation for Medical Education and Research, priority 2009, dated 2014).

How the values were obtained:
[1] = biological target: furin (Homo sapiens, UniProt P09958); settings: cited from earlier work
[2] = tested on: FR74-specific T cells; test: IFN-γ ELIspot of T cell cultures generated ex vivo with polypeptide-pulsed DC; type: cell-based, FVB/N mice
Protocol: FIG. 4 is a graph plotting the results an IFN-γ ELIspot analyses of T cell cultures incubated with the indicated polypeptides. Epitope nesting greatly augments the numbers of antigen-specific T cells. T cells were tested in ELIspot against native FR74 polypeptide at various concentrations. Each data point is the mean of 3 determinations.
FIG. 6. FR74-specific T cells generated with modified polypeptides recognized tumor lysates. […] Each bar is the mean (±s.e.m.) of 3 replicates.
FIG. 7. […] The T cells were generated at varying concentrations of polypeptides (x-axis). Each point is the mean (±s.e.m.) of 3 replicates.
In terms of proliferation, only the dual modified polypeptide was able to generate T cells that were able to proliferate at 10^−9 g/mL (FIG. 5).
In order to determine whether furin cleavage is required, two methods are used: furin insensitive linkers and furin inhibitors. Blockade of enhanced ex vivo expansion mediated by the DC3 peptide using these two methods is powerful evidence, outside of a furin knockout mouse, that furin is required for the actions of DC3. Although it has already been shown that DC3 must be linked to antigen, as a control T cells are expanded using free FR74 mixed with free DC3. To test the role of furin with furin-insensitive linkers, RARR (SEQ ID NO:4) is replaced with VRVV (SEQ ID NO:41) with the polypeptides FR74.1, FR74.3, and FR74.8 as shown in FIG. 17. In parallel with these cultures, cultures are included in which inhibitors are included. The stoichiometric peptidyl inhibitor decanoyl-Arg-Val-Lys-Arg-CH2CL (SEQ ID NO:42) and α1-antitrypsin Portland, which are the two most commonly used inhibitors, are employed. […] Cultures are examined over a range of concentrations of inhibitors and assayed as described with ELIspot and proliferation assays. To generate Th cells, CD4^+ T cells are purified by incubation of splenocytes with anti-CD4^+ MACS microbeads (Miltenyi, Auburn, Calif.) for 20 minutes at 4° C., followed by positive selection of CD4^+ T cells using an AutoMACS automatic magnetic cell sorter according to the manufacturer's specifications. Th cell lines are established with bone marrow derived DC at a concentration of 5×10^4 T cells/mL in 24-well tissue culture-treated plates in complete medium on day 0. To derive the dendritic cells (DCs), bone marrow is harvested from the long bones of FVB/N mice and seeded in 6-well plates (3×10^6/well) in complete media with murine GM-CSF (10 ng/mL) and IL-4 (1 ng/mL). Media and cytokines are replaced after 3 days. On day 5, CPG is added to the cultures at 1 μg/mL, and the cells are ready for T cell induction on day 6. The tissue culture-generated DC are pulsed with 10 μg/mL FR74 peptide or its modifications and 10 μg/mL B7DC-crosslinking antibody at 37° C. for 4 hours. In these experiments, constant mass is maintained. Next, the peptide-loaded DC are washed with media, and the CD4+ T cells are added, and on days 8 and 10, IL-2 (50 U/mL) is added. On day 15, cells are assayed. For the ELIspot analysis, anti-IFN-γ (Pharmingen) antibody is added to a 96-well nitrocellulose-backed plate (NC-plate, Millipore) at 50 μL/well at a concentration of 10 μg/mL in PBS and incubated overnight at 4° C. The day of analysis, the NC-plate is washed with PBS and blocked for 1-2 hours at 37° C. with PBS/2%BSA. After blocking, the plate are again washed. The Th cells are transferred to the antibody-coated plates. Syngeneic naïve CD4 T cells alone without peptide antigen are used as the negative control. Th cells are seeded at 5×10^4 cells/well with a range of native (i.e., FR74) peptide, irrelevant peptide, FRαMMC tumor lysate, irrelevant tumor lysate, media or concanavalin A. Irradiated syngeneic splenocytes are added at 1 ×10^5 cells/well as antigen-presenting cells. The plate is incubated at 37° C. for 24 hours. The plate are washed with PBS/0.05% Tween-20, and 100 μL/well biotinylated anti-IFN-γ(5 μg/mL, Pharmingen) antibody are added to each well. […]

[3] = Immunogenicity of FR74 used as a vaccine with adjuvant; type: in vivo; settings: with complete Freund's adjuvant (CFA), CpG, or GM-CSF
Description: A native helper epitope designated FR74 was a peptide derived from the folate receptor alpha (FRα) (FIG. 2). FRα (also referred to as folate binding protein) is a glycophosphatidyl-anchored membrane glycoprotein that mediates cellular uptake of folate. This polypeptide is over-expressed on many cancers at levels of up to 80-90-fold relative to the levels observed on normal tissues. FRα is an antigen that can be used across strains, which allows one to test various strategies amongst many different I-A and I-E backgrounds. […] FR74 was modified at the amino-terminus end with an Ii-key and at the carboxy terminus with a DC3 amino acid motif (FIG. 2). To reduce enzymatic degradation in cell culture, the amino terminus of FR74 was acetylated to make FR74.1. FR74.2 is FR74 conjugated to Ii-key. It is attached with a flexible, noncleavable linker FR74.3 is FR74 conjugated to a DC3 polypeptide using a furin sensitive linker to permit cleavage. Furin is an endopeptidase that normally proteolytically activates a large number of proproteins in the cell, and it is predominantly localized to the […] (Thomas, G., Nat. Rev. Mol. Cell Biol., 3(10):753-66 (2002)). FR74.4 is a dual conjugated polypeptide. All modified peptides were acetylated at the amino terminus to prevent degradation.

[4] = tested on: CD4 T cells; test: Proliferation assay of CD4 and CD8 T cells from FR74-immunized mice; type: cell-based; settings: but not CD8 T cells, from FR74-immunized FVB mice, FIG. 3A
Protocol: FIG. 3A is a plotting the stimulation indices from a proliferation assay in which CD4 and CD8 T cells from FR74-immunized mice were tested for response to non-specific stimulation (PHA), FR74 polypeptide, or an irrelevant polypeptide (Irrel pep). The stimulation index is the ratio of the thymidine incorporation in the sample with antigen and the controls ample. FIG. 3B is a graph plotting results of an IFN-γELlspot (enzyme-linked immunosorbent spot) analysis of FR74-specific T cell lines stimulated in vitro with dendritic cells (DC) pulsed with either FR74 polypeptide, FRα-overexpressing tumor cell lysate (MMC lysate), or an irrelevant polypeptide antigen (Irrel pep). Each bar is the mean (±s.e.m.) of 3 replicates.
The FR74 polypeptide can activate CD4 T cells in FVB and B6 mice, and it is naturally processed.

[5] = tested on: Th cells; test: Cytokine secretion and Th subsets of T cell cultures under varied culture conditions; type: cell-based
Protocol: FIG. 19. […] Cytokines were measured following stimulation of cells with splenocytes pulsed with either no antigen (open bars) or native FR74 polypeptide. To avoid contamination of cell culture supernatants with splenocyte-derived cytokines, the T cells were purified from the splenocytes prior to incubation to measure cytokines Each bar is the mean (±s.e.m.) of duplicate samples. Results are representative of 2 experiments.
FIG. 20. Manipulation of culture conditions can reduce levels of IL-5 and IL-10 secreting Th cells. Shown are the concentrations of IL-5 and IL-10 within T-cell culture media following simulation of Th cells with or without peptide antigen. Each bar is the mean (±s.e.m.) of duplicate samples.
FIG. 25. Manipulation of culture conditions can reduce levels of IL-5 secreting T cells. Shown are the concentrations of IL-5 within T cell culture media following stimulation of Th cells with or without polypeptide antigen. Each bar is the mean (±s.e.m.) of duplicate samples.
FIG. 26. […] Shown are the concentrations of IL-17 within T cell culture media following simulations of Th cells with or without polypeptide antigen. Each bar is the mean (±s.e.m.) of duplicate samples.
Another item is that Th subset skewing may occur which could cloud interpretations of the polypeptide modifications. […]

Sequence of furin (P09958 108-794, species assumed): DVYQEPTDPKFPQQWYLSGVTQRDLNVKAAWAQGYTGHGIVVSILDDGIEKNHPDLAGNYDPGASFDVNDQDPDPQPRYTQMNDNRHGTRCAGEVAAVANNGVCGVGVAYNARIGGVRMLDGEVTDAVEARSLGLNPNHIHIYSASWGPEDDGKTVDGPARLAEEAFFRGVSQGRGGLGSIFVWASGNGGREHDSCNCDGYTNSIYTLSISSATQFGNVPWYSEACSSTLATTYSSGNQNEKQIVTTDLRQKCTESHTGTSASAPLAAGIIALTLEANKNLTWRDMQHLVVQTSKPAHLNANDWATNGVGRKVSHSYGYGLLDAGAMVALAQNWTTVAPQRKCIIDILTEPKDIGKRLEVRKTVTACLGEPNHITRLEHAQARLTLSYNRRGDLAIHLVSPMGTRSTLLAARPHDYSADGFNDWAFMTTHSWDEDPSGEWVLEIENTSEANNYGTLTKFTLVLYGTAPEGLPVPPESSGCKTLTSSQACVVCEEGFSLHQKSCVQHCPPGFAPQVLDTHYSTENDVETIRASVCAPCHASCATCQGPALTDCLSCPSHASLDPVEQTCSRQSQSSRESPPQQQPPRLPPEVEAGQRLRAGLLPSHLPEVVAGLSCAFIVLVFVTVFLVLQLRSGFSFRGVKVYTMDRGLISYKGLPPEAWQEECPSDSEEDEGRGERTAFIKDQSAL

decanoyl-Arg-Val-Lys-Arg-CH2CL
selectivity for furin [1]: not selective

α1-antitrypsin
selectivity for furin [1]: highly selective for furin
Ki ([1]; furin): 0.6 nM

KDISYLYRFNWNHCG [FR74]
recognition of FRα+ tumor lysates (MMC) pulsed onto DC by FR74-specific T cell lines ([2]; IFN-γ ELIspot, FIG. 3B): recognize FRα^+ tumor lysates
immunogenicity when used to generate T cell lines ([2]; using activated DC): relatively non-immunogenic
immunogenicity as a vaccine [3]: highly immunogenic
proliferation in response to the FR74 polypeptide (stimulation index) [4]: increased proliferation

B1: IFN-γ: cytokine included in T cell culture (protein, UniProt P01579 24-161, looked up)
Interferon gamma: QDPYVKEAENLKKYFNAGHSDVADNGTLFLGILKNWKEESDRKIMQSQIVSFYFKLFKNFKDDQSIQKSVETIKEDMNVKFFNSNKKKRDDFEKLTNYSVTDLNVQRKAIHELIQVMAELSPAAKTGKRKRSQMLFRG
generation of IL-17-secreting Th cells ([5]; FIG. 26): blocks generation of IL-17-secreting Th cells
Th2 effectors (IL-5) in FR74.4 cultures ([5]; cells incubated with FR74.4 with DC and IL-2, FIG. 25): completely blocked
